Test results from ChEMBL document CHEMBL1138176, “Synthesis and structure-activity relationship of small-molecule malonyl coenzyme A decarboxylase inhibitors” (J Med Chem, 2006).
≈ marks a conversion by molar mass, not a printed value. Calls of active or inactive are those of the source. The rule behind the calls is not given here.

Experiments:
[1] = species: Sus scrofa; assay: Decrease in lactate production in ischemic pig heart; format: functional, organism-based
[2] = Stability in rat liver microsomes at 5 uM
[3] = Solubility in PBS at pH 7.4
[4] = Stability in human liver microsomes at 5 uM
[5] = Caco-2 cell membrane permeability; settings: human
[6] = biological target: T1, Malonyl-CoA decarboxylase, mitochondrial (Homo sapiens, UniProt O95822); assay: Inhibition of MCD at 10 uM
T1 sequence (O95822 whole entry): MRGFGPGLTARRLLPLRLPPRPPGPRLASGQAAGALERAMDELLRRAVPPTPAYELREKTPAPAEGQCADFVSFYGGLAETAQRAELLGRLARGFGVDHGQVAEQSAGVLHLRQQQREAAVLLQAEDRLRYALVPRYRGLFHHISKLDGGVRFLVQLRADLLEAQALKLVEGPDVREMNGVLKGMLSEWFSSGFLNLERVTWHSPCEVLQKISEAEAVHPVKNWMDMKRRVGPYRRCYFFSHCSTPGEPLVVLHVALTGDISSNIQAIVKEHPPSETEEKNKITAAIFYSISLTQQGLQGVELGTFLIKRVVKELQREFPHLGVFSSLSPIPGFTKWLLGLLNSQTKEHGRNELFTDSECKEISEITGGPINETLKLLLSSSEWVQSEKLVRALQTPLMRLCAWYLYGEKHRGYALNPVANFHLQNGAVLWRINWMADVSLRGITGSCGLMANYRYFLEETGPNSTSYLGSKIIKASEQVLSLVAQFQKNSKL

Structure (SMILES)	Activity [1]	remaining at 5 µM [2] [%]	solubility [3] [µM]	remaining at 5 µM [4] [%]	Papp [5] [×10⁻⁶ cm/s]	IC50 [6]
COC(=O)CCCCN(C(=O)N1CCOCC1)c1ccc(C(O)(C(F)(F)F)C(F)(F)F)cc1	Active					
CCN(CCCCO)C(=O)N(CC)c1ccc(C(O)(C(F)(F)F)C(F)(F)F)cc1		7	187 (≈ 80.6 µg/mL)	51	49.4	
O=C(Nc1ccc(C(O)(C(F)(F)F)C(F)(F)F)cc1)N1CCOCC1						Not Active
O=C(Nc1ccccc1)Nc1ccc(C(O)(C(F)(F)F)C(F)(F)F)cc1						Not Active
O=C(O)CCCCN(C(=O)N1CCOCC1)c1ccc(C(O)(C(F)(F)F)C(F)(F)F)cc1		108	206 (≈ 97.1 µg/mL)	99		
CCN(C(=O)c1ccc(C#N)cc1)c1ccc(C(O)(C(F)(F)F)C(F)(F)F)cc1		66	8.7 (≈ 3.62 µg/mL)	93	38.7	
CCN(C(=O)N1CCOCC1)c1ccc(C(O)(C(F)(F)F)C(F)(F)F)cc1		9	189 (≈ 75.8 µg/mL)	87	68.2	
CC(C)C(=O)Nc1ccc(C(O)(C(F)(F)F)C(F)(F)F)cc1						Not Active
